Patent US5061794A, “Cephalosporin derivatives, and antibacterial agents” (priority 1986, dated 1991)
Values after ≈ are worked out from the molar mass of the structure shown. Where two headings read alike, the source gives them in different places.

Key:
[1] = test system: Ps. aeruginosa AKR17; assay: in vitro antibacterial activity, agar plate dilution method (MIC); assay type: cell-based, Pseudomonas aeruginosa; details: Pseudomonas aeruginosa, 10^6 CFU/ml
Description: (§1) The in vitro antibacterial activities of the compounds of the present invention against various microorganisms, were measured by the following agar plate dilution method. One platinum loopfull of each test microorganism incubated overnight in Mueller Hinton broth, was inoculated to Mueller Hinton agar (inoculum size: 10^6 CFU/ml). Such culture media containing various antibiotics in various concentrations were prepared. After incubation at 37° C. for 16 hours, the minimum inhibitory concentrations (MIC: μg/ml) were measured.

[2] = test system: Ps. aeruginosa IF03445; assay: as above; assay type: cell-based, Pseudomonas aeruginosa; details: Pseudomonas aeruginosa, 10^6 CFU/ml
Description: as §1

[3] = test system: Ps. aeruginosa AK 109; assay: as above; assay type: cell-based, Pseudomonas aeruginosa; details: Pseudomonas aeruginosa, AK109, 16 h
Description: as §1

[4] = test system: E. coli CSH2 (RK1); assay: microbe, parasite or virus in culture; assay type: cell-based; details: Escherichia coli, 16 h, read-out: Minimum Inhibitory Concentration (MIC), *E. coli CSH2 (RK1), lactamase-producing strain; 10^6 CFU/ml
Description: as §1

[5] = test system: E. coli CSH(RE45); assay: microbe, parasite or virus in culture; assay type: cell-based; details: Escherichia coli, 16 h, read-out: Minimum Inhibitory Concentration (MIC), *E. coli CSH(RE45), lactamase-producing strain; 10^6 CFU/ml
Description: as §1

[6] = test system: Ps. cepacia 23; assay: in vitro antibacterial activity, agar plate dilution method (MIC); assay type: cell-based, Pseudomonas cepacia; details: Burkholderia cepacia, 16 h; Ps. cepacia 23; 10^6 CFU/ml; read-out: Minimum Inhibitory Concentration (MIC)
Description: as §1

[7] = test system: P. vulgaris No. 33; assay: as above; assay type: cell-based; details: Proteus vulgaris, NO.33, 16 h, read-out: Minimum Inhibitory Concentration (MIC), *P. vulgaris No. 33, lactamase-producing strain; 10^6 CFU/ml
Description: as §1

[8] = test system: K. pneumoniae No. 42; assay: as above; assay type: cell-based; details: Klebsiella pneumoniae, NO.42, 16 h, read-out: Minimum Inhibitory Concentration (MIC), *K. pneumoniae No. 42, lactamase-producing strain; 10^6 CFU/ml
Description: as §1

[9] = test system: P. vulgaris HX-19; assay: as above; assay type: cell-based; details: Proteus vulgaris, HX19, 16 h, read-out: Minimum Inhibitory Concentration (MIC)
Description: as §1

[10] = test system: S. aureus 209P NIHJ-JC1; assay: as above; assay type: cell-based; details: Staphylococcus aureus, 16 h
Description: as §1

[11] = test system: K. oxytoca GN10650; assay: as above; assay type: cell-based; details: Klebsiella oxytoca, 10^6 CFU/ml
Description: as §1

[12] = test system: E. cloacae 963; assay: as above; assay type: cell-based; details: 10^6 CFU/ml
Description: as §1

[13] = test system: E. coli NIHJ JC2; assay: as above; assay type: cell-based; details: Escherichia coli, NIHJJC2, 16 h, read-out: Minimum Inhibitory Concentration (MIC), E. coli NIHJ JC2, 10^6 CFU/ml, 37° C.
Description: as §1

[14] = test system: S. marcescens IAM 1184; assay: as above; assay type: cell-based; details: Serratia marcescens, IAM1184, 16 h, S. marcescens IAM 1184; 10^6 CFU/ml; read-out: Minimum Inhibitory Concentration (MIC)
Description: as §1

[15] = test system: S. marcescens No. 16-2; assay: as above; assay type: cell-based; details: Serratia marcescens, NO.162, 16 h
Description: as §1

[16] = test system: E. cloacae Nek 39; assay: as above; assay type: cell-based; details: Enterobacter cloacae, NEK39, 16 h, read-out: Minimum Inhibitory Concentration (MIC), *E. cloacae Nek 39, lactamase-producing strain; 10^6 CFU/ml
Description: as §1

[17] = test system: K. pneumoniae PCI-602; assay: as above; assay type: cell-based; details: Klebsiella pneumoniae, PCI602, 16 h, 10^6 CFU/ml
Description: as §1

[18] = test system: E. coli GN5482; assay: as above; assay type: cell-based; details: Escherichia coli, GN5482, 16 h
Description: as §1

[19] = test system: A. calcoaceticus No. 4; assay: as above; assay type: cell-based, Acinetobacter calcoaceticus; details: Acinetobacter calcoaceticus, NO.4, 16 h, 10^6 CFU/ml
Description: as §1

[20] = 16 h, Ps. aeruginosa AKR17, read-out: Minimum Inhibitory Concentration (MIC)
[21] = IF03445, 16 h, read-out: Minimum Inhibitory Concentration (MIC), Ps. aeruginosa IF03445
[22] = read-out: Minimum Inhibitory Concentration (MIC)
[23] = GN10650, 16 h, read-out: Minimum Inhibitory Concentration (MIC), *K. oxytoca GN10650, lactamase-producing strain
[24] = Enterobacter cloacae, 16 h, E. cloacae 963, read-out: Minimum Inhibitory Concentration (MIC)
[25] = read-out: Minimum Inhibitory Concentration (MIC), *S. marcescens No. 16-2, lactamase-producing strain, 10^6 CFU/ml
[26] = read-out: Minimum Inhibitory Concentration (MIC), K. pneumoniae PCI-602
[27] = read-out: Minimum Inhibitory Concentration (MIC), *E. coli GN5482, lactamase-producing strain, 10^6 CFU/ml
[28] = A. calcoaceticus No. 4, read-out: Minimum Inhibitory Concentration (MIC)
[29] = read-out: Minimum Inhibitory Concentration (MIC), Ps. aeruginosa AK 109, 10^6 CFU/ml
[30] = 16 h, *K. oxytoca GN10650, lactamase-producing strain, read-out: Minimum Inhibitory Concentration (MIC)
[31] = read-out: Minimum Inhibitory Concentration (MIC), A. calcoaceticus No. 4

| SMILES | MIC [1, 20] | MIC [2, 21] | MIC [4] | MIC [5] | MIC [6] | MIC [7] | MIC [8] | MIC ([9]; P. vulgaris HX-19, 10^6 CFU/ml) | MIC [10, 22] | MIC [11, 23] | MIC [12, 24] | MIC [13] | MIC [14] | MIC [15, 25] | MIC [16] | MIC [17, 26] | MIC [18, 27] | MIC [3, 29] | MIC [18, 22] | MIC [19, 31] | also measured |
| --- | --- | --- | --- | --- | --- | --- | --- | --- | --- | --- | --- | --- | --- | --- | --- | --- | --- | --- | --- | --- | --- |
| Nc1nc(C(=NOC2CCCC2)C(=O)NC2C(=O)N3C(C(=O)O)=C(CSc4nc(C(=O)O)c(-c5ccc(O)c(O)c5)s4)CSC23)cs1 (centres unmarked) [Ex. 54, disodium 78-[2-(2-aminothiazol-4-yl)-2-cyclopentyloxyiminoacetamido]-3-[4-carboxylate-5-(3,4-dihydroxyphenyl)thiazol-2-yl]thiomethyl-3-cephem-4-carboxylate] | > 100 µg/mL | 1.56 µg/mL | 0.1 µg/mL | 3.12 µg/mL | < 0.006 µg/mL | 0.025 µg/mL | 0.1 µg/mL | < 0.006 µg/mL | 3.12 µg/mL | 1.56 µg/mL | 0.1 µg/mL | 1.56 µg/mL | 0.05 µg/mL | 1.56 µg/mL | 0.2 µg/mL | < 0.006 µg/mL | 1.56 µg/mL | – | – | – | MIC [3, 22]: 12.5 µg/mL; MIC [19, 28]: 0.2 µg/mL |
| C=CCON=C(C(=O)NC1C(=O)N2C(C(=O)O)=C(CSc3nc(C(=O)O)c(-c4ccc(O)c(O)c4)s3)CSC12)c1csc(N)n1 (centres unmarked) [Ex. 55, disodium 78-[2-allyloxyimino-2-(2-aminothiazol-4-yl)acetamido]-3-[4-carboxylate-5-(3,4-dihydroxyphenyl)thiazol-2-yl]thiomethyl-3-cephem-4-carboxylate] | > 100 µg/mL | 3.12 µg/mL | 0.0125 µg/mL | 0.1 µg/mL | 0.025 µg/mL | 0.025 µg/mL | 0.1 µg/mL | < 0.006 µg/mL | – | – | 0.1 µg/mL | 0.78 µg/mL | 0.1 µg/mL | – | 0.39 µg/mL | < 0.006 µg/mL | – | 6.25 µg/mL | 3.12 µg/mL | 0.1 µg/mL | MIC ([10]; read-out: Minimum Inhibitory Concentration (MIC), S. aureus 209P NIHJ-JC1, 10^6 CFU/ml, 37° C., 16 hours): 6.25 µg/mL; MIC [11, 30]: 50 µg/mL; MIC [15, 22]: 3.12 µg/mL |
| Nc1nc(C(=NOCc2ccccc2)C(=O)NC2C(=O)N3C(C(=O)O)=C(CSc4nc(C(=O)O)c(-c5ccc(O)c(O)c5)s4)CSC23)cs1 (centres unmarked) [Ex. 57] | > 100 µg/mL | 3.12 µg/mL (≈ 4.21 µM) | 0.0125 µg/mL (≈ 0.0169 µM) | 0.1 µg/mL (≈ 0.135 µM) | < 0.006 µg/mL | 0.025 µg/mL (≈ 0.0337 µM) | 0.1 µg/mL (≈ 0.135 µM) | < 0.006 µg/mL | 3.12 µg/mL (≈ 4.21 µM) | – | – | 0.78 µg/mL (≈ 1.05 µM) | 0.1 µg/mL (≈ 0.135 µM) | 6.25 µg/mL (≈ 8.44 µM) | 0.39 µg/mL (≈ 0.526 µM) | < 0.006 µg/mL | – | 6.25 µg/mL (≈ 8.44 µM) | 3.12 µg/mL (≈ 4.21 µM) | 0.39 µg/mL (≈ 0.526 µM) | MIC [11, 30]: 25 µg/mL (≈ 33.7 µM); MIC ([12]; Enterobacter cloacae, 963, 16 h, read-out: Minimum Inhibitory Concentration (MIC), E. cloacae 963): 0.05 µg/mL (≈ 0.0675 µM) |
| CC(=O)Oc1ccc(-c2nc(SCC3=C(C(=O)O)N4C(=O)C(NC(=O)C(=NOC(C)(C)C(=O)O)c5csc(N)n5)C4SC3)sc2CC(=O)O)cc1OC(C)=O (stereo not drawn) [Example 59 (II), trisodium 7β-[2-(2-aminothiazol-4-yl)-2-(1-carboxylate-1-methylethoxyimino)acetamido]-3-[4-(3,4-diacetoxyphenyl)-5-carboxylatemethylthiazol-2-yl]-thiomethyl-3-cephem-4-carboxylate] | – | 1.56 µg/mL | 0.025 µg/mL | 0.05 µg/mL | < 0.006 µg/mL | 0.05 µg/mL | 0.2 µg/mL | 0.025 µg/mL | – | 0.2 µg/mL | 0.2 µg/mL | 3.12 µg/mL | 0.2 µg/mL | 0.78 µg/mL | 0.2 µg/mL | – | 1.56 µg/mL | 1.56 µg/mL | – | – | MIC ([1]; AKR17, 16 h, read-out: Minimum Inhibitory Concentration (MIC), Ps. aeruginosa AKR17): 1.56 µg/mL; MIC ([10]; S. aureus 209P NIHJ-JC1, 10^6 CFU/ml, 37° C., 16 hours, read-out: Minimum Inhibitory Concentration (MIC)): 50 µg/mL; MIC ([17]; K. pneumoniae PCI-602, read-out: Minimum Inhibitory Concentration (MIC)): 0.025 µg/mL; MIC [19, 28]: 0.2 µg/mL |
| CON=C(C(=O)NC1C(=O)N2C(C(=O)O)=C(CSc3nc(-c4ccc(O)c(O)c4)c(CC(=O)O)s3)CSC12)c1csc(N)n1 (stereo not drawn) [compound 58, disodium 7β-[2-(2-aminothiazol-4-yl)-2-methoxyiminoacetamido]-3-[4-(3,4-dihydroxyphenyl)-5-carboxylatemethylthiazol-2-yl]thiomethyl-3-cephem-4-carboxylate] | > 100 µg/mL | – | 0.0125 µg/mL | 0.39 µg/mL | 0.025 µg/mL | 0.025 µg/mL | 0.1 µg/mL | – | 12.5 µg/mL | 12.5 µg/mL | 0.1 µg/mL | 0.39 µg/mL | 0.1 µg/mL | – | 1.56 µg/mL | < 0.006 µg/mL | – | – | 3.12 µg/mL | 0.39 µg/mL | MIC ([2]; 16 h, Ps. aeruginosa IF03445, read-out: Minimum Inhibitory Concentration (MIC)): 25 µg/mL; MIC ([3]; Ps. aeruginosa AK 109, 10^6 CFU/ml, read-out: Minimum Inhibitory Concentration (MIC)): > 100 µg/mL; MIC [9]: 0.0125 µg/mL; MIC [15, 22]: 3.12 µg/mL |
